Data reported in US4558054A, “Spasmolytic endo-8,8-dialkyl-8-azoniabicyclo (3.2.1) octane-6,7-exo-epoxy-3-alkyl-carboxylate salts” (priority 1983, dated 1985).
Read-outs that look alike come from different tables or passages of the source.

Tests used:
[1] = Intestinal transit in the mouse (inhibition of progression of opaque meal); conditions: in vivo, ip
Protocol: (§1) 3. Intestinal transit in the mouse
(§2) 3. intestinal transit in the mouse
(§3) An evaluation was made on the capacity of the studied compounds to inhibit the progression of an opaque meal 15 minutes after their intraperitoneal administration into the mouse. This test is indicative of undesirable side effects.
(§4) The method followed was the classical method of Janssen and Jageneau [Janssen P. A., Jageneau A. H., J. Pharm. Pharmacol. 9, 381 (1957)], by which the doses which inhibit the progression of the opaque meal through the small intestine by 50% (ED50) relative to the controls were calculated.
(§5) Activity affecting intestinal transit in the mouse after intra-
(§6) peritonal administration 15 minutes before taking the opaque

[2] = Acute toxicity in the mouse; format: in vivo; conditions: mouse, in vivo, ip; male mice (Swiss stock); Litchfield and Wilcoxon
Protocol: (§7) 5. Acute toxicity in the mouse
(§8) The acute toxicity of the compounds according to the invention was evaluated in comparison with that of Buscopan, atropine methyl bromide and syntropium bromide, after intraperitoneal administration in male mice (Swiss stock).
(§9) The LD50, the values of which together with the relative confidence limits (P=0.05) are given in Table 6, was calculated by the Litchfield and Wilcoxon method [Litchfield J. T., Wilcoxon F. A., J. Pharmac. Exp. Theor., 96, 99 (1949)].
(§10) Acute toxicity in the mouse after intraperitoneal administration

[3] = system: mouse pupil (basal pupillary diameter); assay: Mydriatic activity in the mouse; format: in vivo; conditions: for mydriatic activity lower than atropine methyl bromide: vs atropine methyl bromide
Protocol: 4. Mydriatic activity in the mouse
The dose able to increase the basal pupillary diameter by 150% (ED150)15 minutes, 30 minutes, 60 minutes and 120 minutes after intraperitoneal administration of the compounds into the mouse was calculated.
Mydriatic activity evaluated in the mouse 15 minutes, 30 minutes, 60
minutes after intraperitoneal administration

[4] = system: isolated rat ileum (antagonist barium chloride); assay: Isolated rat ileum, spasmolytic (direct myolytic) activity vs barium chloride, pA2; format: cell-based; parameters: key to pA2, spasmolytic effect: pA2 = −log molar antagonist conc. halving BaCl2-induced contraction; conditions: for pA2, spasmolytic effect: isolated rat ileum, barium chloride, 6 experiments, confidence limits P = 0.05; for direct myolytic activity relative to Buscopan: Buscopan activity = 1; for spasmolytic activity in words, rat ileum: compared with Buscopan; for Activity ratio: with respect to Buscopan (=1), antilogarithm of pA2 difference
From the text: 1. Isolated rat ileum (antagonist barium chloride)
The spasmolytic activity of the compounds reported in Table 1 were studied firstly in a comparison with Buscopan (scopolamine butyl bromide), using the isolated rat ileum, by the classical Magnus method [Magnus and coll., Pflugers Gas. Physiol., 102, 123 (1904)], of which the smooth muscle was subjected to direct stimulation by barium chloride. The evaluation of this activity was made by the method involving the pA2 determination [Schild H. G., Brit. J. Pharmacol., 2, 189, (1947)]. The pA2 value is the negative logarithm of the molar concentration of the antagonist able to reduce the contraction induced by the antagonist (barium chloride) by 50%.
Spasmolytic effect evaluated on the isolated rat ileum with barium
chloride as antagonist, and expressed as the pA2 value.

[5] = molecular target: T1, isolated guinea pig ileum (antagonist acetyl choline) (Cavia porcellus, UniProt H0W1Z3); assay: Isolated guinea pig ileum, antimuscarinic activity vs acetyl choline, pA2; format: cell-based; conditions: for antimuscarinic spasmolytic activity in words, compared with Buscopan / spasmolytic activity relative to Buscopan: vs Buscopan; for antimuscarinic activity in words, compared with atropine: vs atropine
T1 construct: antimuscarinic activity using the isolated guinea pig ileum; from tissue; host or cells: isolated guinea pig ileum
Protocol: (§11) 2. Isolated guinea pig ileum (antagonist acetyl choline)
(§12) 2. Isolated guinea pig ileum
(§13) All the compounds were also tested for antimuscarinic activity using the isolated guinea pig ileum, with acetyl choline as antagonist.
(§14) The potency of action was evaluated by calculating the pA2 values, as in the case of the direct myolytic activity evaluated on the isolated rat ileum.
(§15) Antimuscarinic activity evaluated on the isolated guinea pig ileum
(§16) with acetyl choline as antagonist, expressed as pA2 value.

[6] = system: intestinal transit in the mouse; assay: Intestinal transit in the mouse (inhibition of progression of opaque meal); conditions: in vivo, ip
Protocol: as §1, §2, §3, §4, §5, §6

mouse = assay: Acute toxicity in the mouse; format: in vivo; conditions: compared with reference standards / Buscopan
Protocol: as §7, §8, §9, §10

[7] = Overall pharmacological screening (spasmolytic activity and side effects); conditions: intestinal transit and mydriatic effect in the mouse
Protocol: The study was conducted using the following in vitro and in vivo tests, each time in comparison with Buscopan, atropine methyl bromide and syntropium bromide: […]

[8] = system: T2, isolated guinea pig ileum (antagonist acetyl choline) (Cavia porcellus); assay: Isolated guinea pig ileum, antimuscarinic activity vs acetyl choline, pA2; format: cell-based; conditions: with respect to Buscopan (=1)
T2 construct: antimuscarinic activity using the isolated guinea pig ileum; from tissue; host or cells: isolated guinea pig ileum
Protocol: as §11, §12, §13, §14, §15, §16

[9] = mouse, i.p., 150% increase of basal pupillary diameter
[10] = isolated guinea pig ileum, acetyl choline, 6 experiments, confidence limits P = 0.05, read-out: pA2, antimuscarinic activity (converted)

T2 sequence (H0W1Z3 1-590): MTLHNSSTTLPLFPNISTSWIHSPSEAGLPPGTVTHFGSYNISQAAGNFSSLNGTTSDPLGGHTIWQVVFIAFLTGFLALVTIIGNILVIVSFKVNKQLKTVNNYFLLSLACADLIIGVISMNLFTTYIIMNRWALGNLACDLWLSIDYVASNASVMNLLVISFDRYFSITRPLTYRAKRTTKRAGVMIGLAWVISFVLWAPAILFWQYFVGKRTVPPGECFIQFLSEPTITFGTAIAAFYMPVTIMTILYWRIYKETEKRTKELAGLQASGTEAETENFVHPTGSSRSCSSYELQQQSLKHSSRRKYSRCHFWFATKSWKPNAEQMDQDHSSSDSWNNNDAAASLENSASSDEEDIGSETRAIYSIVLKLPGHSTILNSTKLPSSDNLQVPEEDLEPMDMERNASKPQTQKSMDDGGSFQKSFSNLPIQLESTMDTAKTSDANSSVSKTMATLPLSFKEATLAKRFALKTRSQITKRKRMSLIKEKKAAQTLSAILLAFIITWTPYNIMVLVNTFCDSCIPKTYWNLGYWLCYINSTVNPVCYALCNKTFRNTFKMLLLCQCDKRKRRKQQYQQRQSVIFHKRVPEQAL
T1 sequence (H0W1Z3 1-590): as above

Compound	ED50 [1]	LD50 [2]	ED150 after 15 min [3, 9]	ED150 after 30 min [3, 9]	ED150 after 60 min [3, 9]	pA2, spasmolytic effect [4]	spasmolytic activity in words, rat ileum [4]	Activity ratio [4]	acute toxicity in words (mouse)	Kb [5]	Activity ratio [8]	further results
C[N+]1(C)[C@@H]2CC[C@H]1C[C@@H](OC(=O)C(CO)c1ccccc1)C2 (stereo partly drawn) [Atropine MeBr, atropine methyl bromide]	52.1 mg/kg	75 mg/kg	0.030 mg/kg/i.p.	0.030 mg/kg/i.p.	0.052 mg/kg/i.p.							
CCCC[N+]1(C)[C@@H]2C[C@@H](OC(=O)[C@H](CO)c3ccccc3)C[C@H]1[C@@H]1O[C@@H]12 (stereo partly drawn) [Buscopan, scopolamine butyl bromide]	51.7 mg/kg	65 mg/kg	3.24 mg/kg/i.p.	3.29 mg/kg/i.p.	3.66 mg/kg/i.p.	6.84						Kb [5, 10]: 46.8 nM; mydriatic activity over time, in words ([3]; mouse, i.p.): still possesses activity 120 minutes after its administration; ED150 after 120 min ([3]; mouse, i.p., 150% increase of basal pupillary diameter, 120 min): 5.32 mg/kg/i.p.
CCCC(CCC)C(=O)O[C@@H]1C[C@@H]2[C@H]3O[C@H]3[C@H](C1)[N+]2(C)C [No. 2, endo-8,8-dimethyl-8-azoniabicyclo[3.2.1]octane-6,7-exo-epoxy-3-(2-propyl)pentanoate bromide]	79 mg/kg	93.5 mg/kg	0.21 mg/kg/i.p.	0.42 mg/kg/i.p.	1.46 mg/kg/i.p.	8.06	decidedly greater than those of Buscopan	16.6	decidedly lower toxicity	11 nM	4.27	reduction of intestinal transit in words [6]: reduce intestinal transit to a decidedly lesser extent; direct myolytic activity relative to Buscopan [4]: 16.6 times; side effects in words [7]: lesser level of side effects; antimuscarinic spasmolytic activity in words, compared with Buscopan [5]: decidedly greater than those of Buscopan; spasmolytic activity relative to Buscopan [5]: 4.27 times; antimuscarinic activity in words, compared with atropine [5]: approaches that of atropine itself; antimuscarinic activity in words, compared with syntropium bromide ([5]; vs syntropium bromide): much higher than; mydriatic activity lower than atropine methyl bromide [3]: 10 times less
CCCC(CCC)C(=O)O[C@@H]1C[C@@H]2[C@H]3O[C@H]3[C@H](C1)[N@+]2(C)CC [No. 5, endo-8-methyl-8-syn-ethyl-8-azoniabicyclo[3.2.1]octane-6,7-exo-epoxy-3-(2-propyl)pentanoate bromide]	73.2 mg/kg	74 mg/kg	2.17 mg/kg/i.p.	6.16 mg/kg/i.p.		7.73	decidedly greater than those of Buscopan	7.8	lower toxicity	19.1 nM	2.25	reduction of intestinal transit in words [6]: reduce intestinal transit to a decidedly lesser extent; direct myolytic activity relative to Buscopan [4]: 7.8 times; side effects in words [7]: lesser level of side effects; antimuscarinic spasmolytic activity in words, compared with Buscopan [5]: decidedly greater than those of Buscopan; spasmolytic activity relative to Buscopan [5]: 2.45 times; antimuscarinic activity in words, compared with atropine [5]: approaches that of atropine itself; mydriatic activity lower than atropine methyl bromide [3]: > 100 times less
CCCC(CCC)C(=O)O[C@@H]1C[C@@H]2[C@H]3O[C@H]3[C@H](C1)[N@+]2(C)C(C)C [No. 8, endo-8-methyl-8-syn-(1-methyl)ethyl-8-azoniabicyclo[3.2.1]octane-6,7-exo-epoxy-3-(2-propyl)pentanoate bromide]	~69 mg/kg	78 mg/kg				5.72	good spasmolytic activity	0.08		302 nM	0.15	
CCCC[N@+]1(C)[C@@H]2C[C@@H](OC(=O)C(CCC)CCC)C[C@H]1[C@@H]1O[C@@H]12 [No. 10, endo-8-methyl-8-syn-butyl-8-azoniabicyclo[3.2.1]octane-6,7-exo-epoxy-3-(2-propyl)pentanoate bromide]	~85 mg/kg	105 mg/kg							decidedly lower toxicity			
CCCC(CCC)C(=O)O[C@@H]1C[C@@H]2[C@H]3O[C@H]3[C@H](C1)[N@@+]2(C)CC [No. 12, endo-8-methyl-8-anti-ethyl-8-azoniabicyclo[3.2.1]octane-6,7-exo-epoxy-3-(2-propyl)pentanoate bromide]	42.2 mg/kg	72 mg/kg				6.66	activity similar to that of Buscopan	0.7		93.3 nM	0.50	activity lower than Buscopan ([4]; vs Buscopan): 1.5 times lower
CCCC(CCC)C(=O)OC1CC2CCC(C1)[N+]2(C)C(C)C (stereo not drawn) [Syntropium Br, syntropium bromide, reference compound]		65 mg/kg									2.57	ED50 ([1]; 15 minutes before opaque meal, indicative of side effects, read-out: ED50, inhibition of progression of opaque meal by 50%): 29.8 mg/kg; Kb [5, 10]: 18.2 nM
